Assay results as given in patent publication US10253032B2, “Spiro-lactam NMDA receptor modulators and uses thereof” (Aptinyx Inc., priority 2013, dated 2019).

Experiments:
[1] = test system: LTP; assay: LTP (long-term potentiation) augmentation; conditions: LTP Concentration 1 uM
[2] = target: T1, NMDA receptor glycine site, rat cortical membranes (Rattus norvegicus, UniProt P35439); assay: [3H] MK-801 binding assay (MK-801 Glycine Site Binding Assay: Rat, Cortex); conditions: potentiation of [3H]MK-801 binding (5 nM), 50 μM glutamate, 15 min @25° C.
T1 construct: well washed rat cortical membranes (200 μg); from tissue; host or cells: rat cerebral cortex membranes
Method: Assays were conducted as described in Moskal et al. (Moskal, J. R., Kuo, A. G., Weiss, C., Wood, P. L., O'Connor Hanson, A., Kelso, S., Harris, R. B., Disterhoft, S. F., 2005. GLYX-13: a monoclonal antibody-derived peptide that acts as an N-methyl-D-aspartate receptor modulator. Neuropharmacology. 49, 1077-87) The potentiation of [^3H]MK-801 binding (5 nM; 22.5 Ci/mmol) to well washed rat cortical membranes (200 μg) was measured under non-equilibrium conditions (15 min @25° C.) in the presence of increasing concentrations of test compounds and 50 μM glutamate. Zero levels were determined in the absence of any glycine ligand and in the presence of 30 μM 5.7 DCKA. Maximal stimulation was measured in the presence of 1 mM glycine, and 50 μM glutamate was present in all samples. The facilitation of [^3H]MK-801 binding by tests compounds was calculated by using a 3 parameter log agonist vs. response equation (Graph pad Prism, USA) and potency (EC50, expressed in pM) and maximal activity (% maximal stimulation) were calculated for the test compound.

- EC50 [2]: 2.43 nM
Structure (SMILES): NC(=O)C(CO)N1CCCC12CNC2=O (centres unmarked) [Compound X]
- LTP: LTP Augmentation [1]: 75%
